Laboratory results reported in patent publication US10681909B2, “Herbicidal triazoles” (FMC Corporation, priority 2014, dated 2020).

Legend:
morningglory [1] = test: Test A preemergence; format: in vivo, Ipomoea spp.; conditions: Ipomoea, pre-emergence, 240 h, 0 to 100 scale (0 no effect, 100 complete control), read-out: Plant response rating, Morningglory; for pest or weed control at 125 g/ha: 125 g ai/ha; for pest or weed control at 500 g/ha: 500 g ai/ha, approx. 10 d
Procedure, shortened: (§1)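 Pre- and postemergence spray tests in a loam soil–sand mixture: seeded soil received a directed spray, while established seedlings 2–10 cm high at the one- to two-leaf stage were treated over the top. Compounds were carried in non-phytotoxic solvent with surfactant.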

wheat = test: Test A preemergence; format: in vivo, Triticum aestivum; conditions: Triticum aestivum, pre-emergence, 240 h, 0 to 100 scale (0 no effect, 100 complete control), read-out: Plant response rating, Wheat; for plant injury at 125 g/ha: 125 g ai/ha; for plant injury at 500 g/ha: 500 g ai/ha, approx. 10 d
Procedure, shortened: as §1

crabgrass, large = test: Test A postemergence; format: in vivo, Digitaria sanguinalis; conditions: Digitaria sanguinalis, post-emergence, 240 h, 0 to 100 scale (0 no effect, 100 complete control), approx. 10 d, read-out: Plant response rating, Crabgrass, Large; for pest or weed control at 125 g/ha: 125 g ai/ha; for pest or weed control at 500 g/ha: 500 g ai/ha
Procedure, shortened: as §1

morningglory [2] = test: Test A postemergence; format: in vivo, Ipomoea spp.; conditions: Ipomoea, post-emergence, 240 h, 0 to 100 scale (0 no effect, 100 complete control), approx. 10 d, read-out: Plant response rating, Morningglory; for pest or weed control at 125 g/ha: 125 g ai/ha; for pest or weed control at 500 g/ha: 500 g ai/ha
Procedure, shortened: as §1

nutsedge, yellow = test: Test C preemergence; format: in vivo, Cyperus esculentus; conditions: for Plant response rating (scale of 0 to 100 where 0 is no effect and 100 is complete control): Nutsedge, Yellow, preemergence; for Nutsedge, Yellow plant response rating (0 to 100): Preemergence, visual rating after 13 to 15 d
Procedure, shortened: (§2)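 Seeds were planted in loam soil plus sand and sprayed preemergence. In parallel, potted plants in a peat-based medium were sprayed postemergence at 2 to 18 cm (1- to 4-leaf stage). Compounds were formulated in non-phytotoxic solvent with surfactant.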

oilseed rape = test: Test C preemergence; format: in vivo, Brassica napus; conditions: for Plant response rating (scale of 0 to 100 where 0 is no effect and 100 is complete control): Oilseed Rape, preemergence; for Oilseed Rape plant response rating (0 to 100): Preemergence, visual rating after 13 to 15 d
Procedure, shortened: as §2

blackgrass = test: Test D preemergence; format: in vivo, Alopecurus myosuroides; conditions: scale 0 to 100
Text: (§3) Seeds of plant species selected from bluegrass (annual bluegrass, Poa annua), blackgrass (Alopecurus myosuroides), canarygrass (Phalaris minor), chickweed (common chickweed, Stellaria media), galium (catchweed bedstraw, Galium aparine), bromegrass, down (downy bromegrass, Bromus tectorum), Russian thistle (Salsola kali), field poppy (Papaver rhoeas), field violet (Viola arvensis), foxtail, green (green foxtail, Setaria viridis), deadnettle (henbit deadnettle, Lamium amplexicaule), ryegrass, Ital. (Italian ryegrass, Lolium multiflorum), kochia (Kochia scoparia), lambsquarters (Chenopodium album), oilseed rape (Brassica napus), pigweed (Amaranthus retroflexus), chamomile (scentless chamomile, Matricaria inodora), speedwell (bird's-eye speedwell, Veronica persica), barley, spring (spring barley, Hordeum vulgare), wheat, spring (spring wheat, Triticum aestivum), buckwheat, wild (wild buckwheat, Polygonum convolvulus), wild mustard (Sinapis arvensis), oat, wild (wild oat, Avena fatua), radish, wild (wild radish, Raphanus raphanistrum), […]), barley, winter (winter barley, Hordeum vulgare), and wheat, winter (winter wheat, Triticum aestivum) were planted into a silt loam soil and treated preemergence with test chemicals formulated in a non-phytotoxic solvent mixture which included a surfactant. At the same time, these species were planted in pots containing Sunshine Redi-Earth® planting medium comprising spaghnum peat moss, vermiculite, starter nutrients and dolomitic limestone and treated with postemergence applications of the test chemicals formulated in the same manner. Plants ranged in height from 2 to 18 cm (1- to 4-leaf stage). Treated plants and controls were maintained in a controlled growth environment for 14 to 21 d after which time all species were compared to controls and visually evaluated. […] A dash (-) response means no test result.

field violet = test: Test D preemergence; format: in vivo, Viola arvensis; conditions: scale 0 to 100
Text: as §3

kochia = test: Test D preemergence; format: in vivo, Kochia scoparia; conditions: scale 0 to 100
Text: as §3

wild mustard [3] = test: Test D preemergence; format: in vivo, Sinapis arvensis; conditions: scale 0 to 100
Text: as §3

wheat, spring = test: Test D postemergence; format: in vivo, Triticum aestivum; conditions: scale 0 to 100
Text: as §3

wheat, winter = test: Test D postemergence; format: in vivo, Triticum aestivum; conditions: scale 0 to 100
Text: as §3

wild mustard [4] = test: Test D postemergence; format: in vivo, Sinapis arvensis; conditions: scale 0 to 100
Text: as §3

CCc1nc(-c2ccc(C(F)(F)F)cc2)nn1Cc1ccnc(C(F)(F)F)c1 [Compound 1, 4-[[5-ethyl-3-[4-(trifluoromethyl)phenyl]-1H-1,2,4-triazol-1-yl]methyl]-2-(trifluoromethyl)pyridine]
pest or weed control at 125 g/ha (morningglory [1]): 30%
pest or weed control at 500 g/ha (morningglory [1]): 80%
plant injury at 125 g/ha (wheat): 20%
plant injury at 500 g/ha (wheat): 30%
pest or weed control at 125 g/ha (crabgrass, large): 100%
pest or weed control at 500 g/ha (crabgrass, large): 100%
pest or weed control at 125 g/ha (morningglory [2]): 90%
pest or weed control at 500 g/ha (morningglory [2]): 100%
Plant response rating (scale of 0 to 100 where 0 is no effect and 100 is complete control) (nutsedge, yellow; 250 g ai/ha): 15
Nutsedge, Yellow plant response rating (0 to 100) (nutsedge, yellow; 31 g ai/ha): 0
Nutsedge, Yellow plant response rating (0 to 100) (nutsedge, yellow; 62 g ai/ha): 5
Plant response rating (scale of 0 to 100 where 0 is no effect and 100 is complete control) (oilseed rape; 125 g ai/ha): 100
Plant response rating (scale of 0 to 100 where 0 is no effect and 100 is complete control) (oilseed rape; 250 g ai/ha): 100
Oilseed Rape plant response rating (0 to 100) (oilseed rape; 31 g ai/ha): 25
Oilseed Rape plant response rating (0 to 100) (oilseed rape; 62 g ai/ha): 90
Plant response rating: Blackgrass (blackgrass; 31 g ai/ha): 15
Plant response rating: Blackgrass (blackgrass; 62 g ai/ha): 35
Plant response rating: Blackgrass (blackgrass; 125 g ai/ha): 35
Plant response rating: Blackgrass (blackgrass; 250 g ai/ha): 65
Plant response rating: Field Violet (field violet; 62 g ai/ha): 95
Plant response rating: Field Violet (field violet; 125 g ai/ha): 100
Plant response rating: Field Violet (field violet; 250 g ai/ha): 100
Plant response rating: Kochia (kochia; 62 g ai/ha): 70
Plant response rating: Kochia (kochia; 125 g ai/ha): 100
Plant response rating: Kochia (kochia; 250 g ai/ha): 100
Plant response rating: Mustard, Wild (wild mustard [3]; 62 g ai/ha): 100
Plant response rating: Mustard, Wild (wild mustard [3]; 125 g ai/ha): 100
Plant response rating: Mustard, Wild (wild mustard [3]; 250 g ai/ha): 100
Plant response rating: Wheat, Spring (wheat, spring; 31 g ai/ha): 20
Plant response rating: Wheat, Spring (wheat, spring; 62 g ai/ha): 25
Plant response rating: Wheat, Spring (wheat, spring; 125 g ai/ha): 35
Plant response rating: Wheat, Spring (wheat, spring; 250 g ai/ha): 45
Plant response rating: Wheat, Winter (wheat, winter; 31 g ai/ha): 15
Plant response rating: Wheat, Winter (wheat, winter; 62 g ai/ha): 15
Plant response rating: Wheat, Winter (wheat, winter; 125 g ai/ha): 25
Plant response rating: Wheat, Winter (wheat, winter; 250 g ai/ha): 35
Plant response rating: Mustard, Wild (wild mustard [4]; 31 g ai/ha): 100
Plant response rating: Mustard, Wild (wild mustard [4]; 62 g ai/ha): 100
Plant response rating: Mustard, Wild (wild mustard [4]; 125 g ai/ha): 100
Plant response rating: Mustard, Wild (wild mustard [4]; 250 g ai/ha): 100

CCOc1nc(-c2ccc(F)cc2)nn1Cc1ccnc(C(F)(F)F)c1 [Compound 8, 4-[[5-ethoxy-3-(4-fluorophenyl)-1H-1,2,4-triazol-1-yl]methyl]-2-(trifluoromethyl)pyridine]
pest or weed control at 125 g/ha (morningglory [1]): 100%
pest or weed control at 500 g/ha (morningglory [1]): 100%
plant injury at 125 g/ha (wheat): 80%
plant injury at 500 g/ha (wheat): 100%
pest or weed control at 125 g/ha (crabgrass, large): 100%
pest or weed control at 500 g/ha (crabgrass, large): 100%
pest or weed control at 125 g/ha (morningglory [2]): 90%
pest or weed control at 500 g/ha (morningglory [2]): 100%
Plant response rating (scale of 0 to 100 where 0 is no effect and 100 is complete control) (nutsedge, yellow; 125 g ai/ha): 55
Plant response rating (scale of 0 to 100 where 0 is no effect and 100 is complete control) (nutsedge, yellow; 250 g ai/ha): 80
Nutsedge, Yellow plant response rating (0 to 100) (nutsedge, yellow; 31 g ai/ha): 10
Nutsedge, Yellow plant response rating (0 to 100) (nutsedge, yellow; 62 g ai/ha): 40
Plant response rating (scale of 0 to 100 where 0 is no effect and 100 is complete control) (oilseed rape; 125 g ai/ha): 100
Plant response rating (scale of 0 to 100 where 0 is no effect and 100 is complete control) (oilseed rape; 250 g ai/ha): 100
Oilseed Rape plant response rating (0 to 100) (oilseed rape; 31 g ai/ha): 95
Oilseed Rape plant response rating (0 to 100) (oilseed rape; 62 g ai/ha): 95
Plant response rating: Blackgrass (blackgrass; 31 g ai/ha): 65
Plant response rating: Blackgrass (blackgrass; 62 g ai/ha): 70
Plant response rating: Blackgrass (blackgrass; 125 g ai/ha): 100
Plant response rating: Blackgrass (blackgrass; 250 g ai/ha): 100
Plant response rating: Field Violet (field violet; 62 g ai/ha): 100
Plant response rating: Field Violet (field violet; 125 g ai/ha): 100
Plant response rating: Field Violet (field violet; 250 g ai/ha): 100
Plant response rating: Kochia (kochia; 62 g ai/ha): 100
Plant response rating: Kochia (kochia; 125 g ai/ha): 100
Plant response rating: Kochia (kochia; 250 g ai/ha): 100
Plant response rating: Mustard, Wild (wild mustard [3]; 62 g ai/ha): 100
Plant response rating: Mustard, Wild (wild mustard [3]; 125 g ai/ha): 100
Plant response rating: Mustard, Wild (wild mustard [3]; 250 g ai/ha): 100
Plant response rating: Wheat, Spring (wheat, spring; 31 g ai/ha): 25
Plant response rating: Wheat, Spring (wheat, spring; 62 g ai/ha): 25
Plant response rating: Wheat, Spring (wheat, spring; 125 g ai/ha): 35
Plant response rating: Wheat, Spring (wheat, spring; 250 g ai/ha): 35
Plant response rating: Wheat, Winter (wheat, winter; 31 g ai/ha): 25
Plant response rating: Wheat, Winter (wheat, winter; 62 g ai/ha): 35
Plant response rating: Wheat, Winter (wheat, winter; 125 g ai/ha): 35
Plant response rating: Wheat, Winter (wheat, winter; 250 g ai/ha): 35
Plant response rating: Mustard, Wild (wild mustard [4]; 31 g ai/ha): 100
Plant response rating: Mustard, Wild (wild mustard [4]; 62 g ai/ha): 100
Plant response rating: Mustard, Wild (wild mustard [4]; 125 g ai/ha): 100
Plant response rating: Mustard, Wild (wild mustard [4]; 250 g ai/ha): 100
